Here are results for four compounds from patent US20240261443A1, “COMPOUNDS AND COMPOSITIONS USEFUL AS RADIOTRACERS FOR IMAGING OF REACTIVE OXIDATIVE SPECIES” (Wake Forest University Health Sciences, priority 2019, published 2024).

One data set relates to SCC-61 cells. The conditions noted are these: cited from earlier work.
Another data set is described as follows: Ex vivo serum stability. The class given is in vitro ADME. The conditions noted are these: human serum, 37° C., after 120 min of tracer synthesis. Here is the method: The ex vivo serum stability of [^18F]KS1 and [^18F]KS2 were analyzed in human serum samples, following previously published methods (Sai et al., Peptide-based PET imaging of the tumor restricted IL13RA2 biomarker. Oncotarget 2017, 5; Sattiraju et al., IL13RA2 targeted alpha particle therapy against glioblastoma. Journal of Nuclear Medicine 2016, 57 (supplement 2), 634; Wang et al., Evaluation of F-18-labeled amino acid derivatives and [18F]FDG as PET probes in a brain tumor-bearing animal model. Nuclear Medicine and Biology 2005, 32 (4), 367-375). Briefly, radiotracer was added to the human serum sample, and incubated at 37° C. Radioactive serum mixture was injected into the QC-HPLC system at 5 min, 30 min, 1 h, 1.5 h, 2 h, 2.5 h, and 3 h post radiotracer synthesis. Radiolysis through defluorination and/or oxidation of the radiotracers (if any) can be seen as new radiochemical peaks at different retention times (Rt) than the original product peak (Jin et al., A promising F-18 labeled PET radiotracer (-)-[18F]VAT for assessing the VAChT in vivo. Journal of Nuclear Medicine 2015, 56 (supplement 3); Koglin et al., [F-18]BAY 85-8050: A novel tumor specific probe for PET imaging-Preclinical results. Journal of Nuclear Medicine 2010, 51 (supplement 2), 1535; […] et al., Imaging COX-2 expression in cancer using PET/SPECT radioligands: current status and future directions. […]

The next data set has as its system PC3 cell line. Briefly: MTT cytotoxicity IC50 assay, PC3. The class given is cell-based, human. The protocol:
(§1) The cells were seeded at density 5×10^3 cells/well. After 24 h pre-incubation period, cells were treated with 0.01 mM to 2.0 mM of freshly prepared KS1 and KS2 along with ascorbate (n=3) for 48 h. 0.2% of DMSO served as vehicle control. After 48 h, the solutions were removed from all plates and MTT assays performed following the published protocols. IC50 values are presented as mean±SD from at least three independent experiments.
(§2) There is growing evidence for a therapeutic role of ascorbate against several cancers (Creagan et al., Failure of High-Dose Vitamin C (Ascorbic Acid) Therapy to Benefit Patients with Advanced Cancer. New England Journal of Medicine 1979, 301 (13), 687-690; Chen et al., Pharmacologic ascorbic acid concentrations selectively kill cancer cells: action as a pro-drug to deliver hydrogen peroxide to tissues. Proceedings of the National Academy of Sciences of the United States of America 2005, 102 (38), 13604-13609; Prasad et al., High Doses of Multiple Antioxidant Vitamins: Essential Ingredients in Improving the Efficacy of Standard Cancer Therapy. Journal of the American College of Nutrition 1999, 18 (1), 13-25). Pharmacologic doses of ascorbate (oral and/or intravenous) could increase the effectiveness of cancer chemotherapy in many solid cancer therapies (López-Lizaro, Dual role of hydrogen peroxide in cancer: Possible relevance to cancer chemoprevention and therapy. Cancer Letters 2007, 252 (1), 1-8; Li et al., New Developments and Novel Therapeutic Perspectives for Vitamin C. The Journal of Nutrition 2007, 137 (10), 2171-2184; Klimant et al., Intravenous vitamin C in the supportive care of cancer patients: a review and rational approach. Current Oncology 2018, 25 (2), 139-148. The primary objective of this experiment was to determine the cytotoxic effects of KS1 at pharmacological concentrations. Cancer cell lines were selected based on their high ROS implications. […] These cell lines have been studied extensively with ascorbic acid treatments (Schoenfeld et al., O(2)(·−) and H(2)O(2)-Mediated Disruption of Fe Metabolism Causes the Differential Susceptibility of NSCLC and GBM Cancer Cells to Pharmacological Ascorbate. Cancer Cell 2017, 31 (4), 487-500.e8; Chen et al., Modulators of Redox Metabolism in Head and Neck Cancer. Antioxidants & Redox Signaling 2017, 29 (16), 1660-1690; Khandrika et al., Oxidative stress in prostate cancer. Cancer Lett 2009, 282 (2), 125-136.

Another data set concerns SCC-61 cell line (HNSCC). The experiment in a line: MTT cytotoxicity IC50 assay, SCC-61. The class given is cell-based, human. The conditions noted are these: SCC-61, MTT. Here is the method:
as §1, §2

The subject of data set [1] is SCC-61 and rSCC-61 cell lines. The experiment in a line: MitoSOX fluorescence ROS assay, with or without SOD blocker. It is filed as cell-based, human. The protocol:
As a first-line tool to screen KS1 and KS2: SCC-61 has higher intracellular ROS than rSCC-61. MitoSOX is a mitochondrion-targeted dihydroethidium based derivative that primarily detects ROS (superoxide anion) produced within mitochondria. Mitosox assays without any ligands were used as controls. The two cell lines were treated with KS1, KS2 and ascorbate (10.0 μM) and incubated for an hour. MitoSOX (1.0 μM) in phenol red-free DMEM/F12 media was added and incubated for an additional 10 min. The cells were then washed with PBS and imaged in the same media.
In addition to testing KS1 with the MitoSOX assay, we compared our results with no ligand controls and ascorbate as a reference standard. The two cell lines were treated with KS1 and ascorbate (10.0 μM) and incubated for an hour. MitoSOX (1.0 μM) in phenol red-free DMEM/F12 media was added and incubated for an additional 10 min. The cells were then washed with PBS and imaged in the same media. Ligand specificity is commonly determined by pretreating the cells with high concentrations of blockers. Superoxide dismutase (SOD), an enzyme that selectively suppresses accumulation of ROS-superoxide peroxide anions, was added as blocker (1.0 mM) 60 min before the treatment of KS1 (Bielski et al., Chemistry of ascorbic acid radicals. in Ascorbic Acid: Chemistry, Metabolism, and Uses. Chapter. 1982; 4:81-100). Fluorescence was subsequently measured and its intensity was quantified in f.u (fluorescence units).
Ligand specificity is commonly determined by pretreating the cells with high concentrations of blockers. We used superoxide dismutase (SOD), an enzyme that selectively suppresses accumulation of ROS-superoxide peroxide anions (Bielski et al., Chemistry of ascorbic acid radicals. in Ascorbic Acid: Chemistry, Metabolism, and Uses. Chapter 1982, 4, 81-100). The same MitoSOX assay with KS1 and KS2 (10 μM) was performed by pretreating the SCC-61 cells with SOD (1.0 mM) for 60 min.

Data set [2] deals with SCC-61 and PC3 cell lines. The experiment in a line: DCFDA intracellular ROS detection assay. The conditions noted are these: 2 mM, 7 h, compared to 100 μM. The class given is cell-based, human. An excerpt: For this, we used dichlorofluorescin diacetate (DCFDA) intracellular ROS detection assay kit and followed manufacture recommended protocol (ZHELEV et al., Docosahexaenoic Acid Sensitizes Leukemia Lymphocytes to Barasertib and Everolimus by ROS-dependent Mechanism Without Affecting the Level of ROS and Viability of Normal Lymphocytes. Anticancer Research 2016, 36 (4), 1673-1682). We studied two patient-derived tumor cell lines: SCC-61, […], and PC3, prostate cancer cell line. The maximum allowed mass for a typical clinical PET radiotracer is <100 μM (Schwarz et al., Radiochemistry and radiopharmacology. LIC-Nuclear Medicine and PET/CT: Technology and Techniques 2016, 11, 77), so we chose 10-100 μM as our concentration range for tracer-level assays. The lowest reported pharmacologic dose for ascorbate is 2.0 mM (Levine et al., Vitamin C: a concentration-function approach yields pharmacology and therapeutic discoveries. Adv Nutr 2011, 2 (2), 78-88), so we chose this dose for our pharmacological assays. We chose the ligand incubation times based on the maximum tracer uptake time (˜2 h) for a typical [^18F]-based PET radiotracer injection (Schlyer, PET tracers and radiochemistry. ANNALS-ACADEMY OF MEDICINE SINGAPORE 2004, 33 (2), 146-154).
Pharmacologic doses of ascorbate generates ROS, including H2O2 and trace amounts of labile iron extracellularly and/or intracellularly (Nauman et al., Systematic Review of Intravenous Ascorbate in Cancer Clinical Trials. Antioxidants (Basel) 2018, 7 (7), 89). We performed the same DCFDA assay with KS1 and ascorbate at pharmacological doses of 2 mM for 7 h in both SCC-61 and PC3 cell lines. ROS production was analyzed and reported (FIG. 11) using the similar measurements as above. Ligand specificity is commonly determined by pretreating the cells with high concentrations of blockers. We used superoxide dismutase (SOD), an enzyme that selectively suppresses accumulation of superoxide peroxide anions (Bielski et al., Chemistry of ascorbic acid radicals. in Ascorbic Acid: Chemistry, Metabolism, and Uses. Chapter 1982, 4, 81-100).

Molecules are shown by their SMILES.

With `C#Cc1cccc(Nc2ncnc3cc(OCCOC)c(OCCOC)cc23)c1` [erlotinib], the IC50 in the data set with SCC-61 cells was more than 50 µM.
`O=C1O/C(=C/Cc2ccc(OCC[18F])cc2)C(O)=C1O` [[^18F]KS2] yielded an intact in serum in “Ex vivo serum stability” of approximately 80%.
Regarding `O=C1O[C@H]([C@@H](O)CO)C(O)=C1O` [ascorbate, ascorbic acid, reference compound], the IC50 in the data set with PC3 cell line (Homo sapiens, PC-3, Example 7, 48 h) is 1120 µM; in the data set on PC3 cell line (Homo sapiens, PC-3, Example 13), 1410 µM; with SCC-61 cell line (HNSCC) (Homo sapiens, Example 7, 48 h) it was 815 µM; with SCC-61 cell line (HNSCC) (Homo sapiens, Example 13) it was 1380 µM. Further, in data set [1] (10.0 μM, 1 h incubation), the “MitoSOX fluorescence in SCC-61 compared to rSCC-61 cells” value is given as “higher fluorescence”. Moreover, the “fluorescence intensity (ROS generation) at pharmacological dose” value in data set [2] is recorded as “also increased, but not as with KS1”.
As for `O=C1O/C(=C/Cc2ccc(OCCF)cc2)C(O)=C1O` [KS2], the 50% inhibitory concentration (IC50) in the data set on PC3 cell line (Example 7, 48 h) was 251 µM; in the data set with SCC-61 cell line (HNSCC) (Example 7, 48 h) it was 166 µM. The “higher selectivity between the two cell lines compared to ascorbate selectivity” value in data set [1] (Example 4, SCC-61 vs rSCC-61, MitoSOX fluorescence) is given as approximately 10 fold. Moreover, the “decrease of fluorescent uptake by SOD pretreatment” value in data set [1] (SCC-61 cells, SOD (1.0 mM) for 60 min) was approximately 30%.
